In patent US11965006B2, “Antimicrobial and anti-cancer therapy” (UNIVERSITY OF PITTSBURGH—OF THE COMMONWEALTH SYSTEM OF …, priority 2016, dated 2024):
Ends that are not written are not given here.

B1: SPLUNC1-wt: wildtype version of SPLUNC1, a naturally secreted antimicrobial protein (protein, UniProt Q9NP55 20-256, looked up)
BPI fold-containing family A …: QFGGLPVPLDQTLPLNVNPALPLSPTGLAGSLTNALSNGLLSGGLLGILENLPLLDILKPGGGTSGGLLGGLLGKVTSVIPGLNNIIDIKVTDPQLLELGLVQSPDGHRLYVTIPLGIKLQVNTPLVGASLLRLAVKLDITAEILAVRDKQERIHLVLGDCTHSPGSLQISLLDGLGPLPIQGLLDSLTGILNKVLPELVQGNVCPLVNEVLRGLDITLVHDIVNMLIHGLQFVIKV

Columns and labels:
Hep2 epithelial cells = experiment: Hep2 cytopathology in RSV plaque assay; type: cell-based; settings: 32 μM
Description: Using a standard plaque assay, RSV replication was quantified in permissive Hep2 epithelial cells in the presence or absence of various AMPs. RSV plaque assays were used to determine the minimum dose required to induce Hep2 cytopathology and maximum anti-viral effects. Experimental controls included Hep2 cells+/−RSV and Hep-2 cells with AMP only.
Hep2 control cells without the AMP were also plated. Both plates were infected with the same dilution of A2 RSV virus. There is extensive sloughing of cells treated with the peptide (top plate) as compared to cells which were not (bottom plate), FIG. 18.

[1] = test system: primary Human bronchial epithelial (HBE) cells; experiment: Toxicity to primary cells, tetrazolium-based viability assay; type: cell-based; settings: treated 2 h
Description: Anti-cancer activity of SEQ ID No. 26 and its D-amino acid modified enantiomer, SEQ ID. No. 34. SEQ ID. No. 34 was compared to SEQ ID No. 26 for selective anti-cancer activities using cancer cell lines of the respiratory system. See FIG. 22A for H460 (large cell lung cancer) and Calu-1 (non-small cell lung cancer) and FIG. 22B for primary Human bronchial epithelial (HBE) cells. The cells were grown to 80% confluence and then treated with each AMP for 2 h. Percent viability was examined using a tetrazolium-based assay assessing the mitochondrial integrity. […] No. 34; however SEQ ID. […] No. 34. Therefore, SEQ ID. […] No. 26.

[2] = test system: Pseudomonas aeruginosa MDR clinical isolates; type: cell-based; settings: Table 3
Description: (§1) The bactericidal activities were examined using standard bacterial culture media (MHB) without the inclusion of human blood.
(§2) Tables 3 and 4 provide the MIC data for the tested AMPs against a variety of infectious species. The following strains were tested: Enterococcus faecium MDR clinical isolates Ef 25153 and Ef 26125; methicillin-resistant Staphylococcus aureus (MRSA) clinical isolates USA300 and 150-10; Klebsiella pneumonia MDR clinical isolates C3, C5, A5, D7 and E6; and Pseudomonas aeruginosa MDR clinical isolates PA 82-8 and PA 129-5. […] Table 5 provides the data for the D-amino acid substituted AMPs and their bactericidal activities against various Klebsiella pneumonia multi-drug resistant (MDR) clinical isolates. All odd number Kp bacteria (isolated prior to colistin treatment; colistin sensitive) are paired with the corresponding even number Kp bacteria (isolated after colistin treatment; colistin resistant) from the same patient. O.D. readings represent the bacterial growth with a background reading of about 0.049+/−0.003.

[3] = test system: Klebsiella pneumonia MDR clinical isolates; type: cell-based; settings: Table 3
Description: as §1, §2

[4] = test system: Enterococcus faecium MDR clinical isolates; type: cell-based; settings: Table 3
Description: as §1, §2

[5] = test system: methicillin-resistant Staphylococcus aureus (MRSA) clinical isolates; type: cell-based; settings: Table 3
Description: as §1, §2

[6] = In vivo toxicity / maximum tolerated dose; parameters: species or system Mice (strain: Swiss Webster)
Description: The modified AMPs show a lower toxicity and higher maximum tolerated dosage (MTD) than WLBU2 (SEQ ID No. 26). The MTD for WLBU2 (SEQ ID No. 26) is 15 mg/kg, for Colistin is 10 mg/kg, and SEQ ID No. 15 is 30 mg/kg (FIG. 14A).
Mice (strain: Swiss Webster) were injected with SEQ ID No. 15 peptides intravenously (i.v.) or intraperitoneally (i.p.) at the concentrations indicated. […] Thus, the estimated maximum tolerated dose (MTD) is around 40-50 mpk (i.v.). On a similar setting of testing other AMPS, the MTD for WLBU2 is 15 mpk (i.v.) and 10 mpk (i.v.) for colistin.

S.A. ATCC49775 = experiment: Antimicrobial activity of SPLUNC1 proteins (FIG. 2A); type: cell-based; settings: S.A. ATCC49775, FIG. 2A
Description: (§3) The AMPs disclosed herein were derived from the naturally secreted antimicrobial protein SPLUNC1. […] FIG. 2C) illustrates the alpha helical structure of alpha4 (A4), the 30 residue sequence used as the template to design the disclosed AMPs listed in Table 2.

MRSA USA300 = experiment: Antimicrobial activity of SPLUNC1 proteins (FIG. 2B); type: cell-based; settings: MRSA USA300, FIG. 2B
Description: as §3

Molecule | cytopathology in Hep2 cells (Hep2 epithelial cells) | toxicity to primary HBE cells [1] | MIC PA 82-8 ([2]; isolate PA 82-8) [µM] | MIC PA 129-5 ([2]; isolate PA 129-5) [µM] | MIC A5 ([3]; isolate A5) [µM] | MIC C3 ([3]; isolate C3) [µM] | MIC C5 ([3]; isolate C5) [µM] | MIC D7 ([3]; isolate D7) [µM] | MIC E6 ([3]; isolate E6) [µM] | MIC Ef 25153 ([4]; isolate Ef 25153) [µM] | MIC Ef 26125 ([4]; isolate Ef 26125) [µM] | MIC MRSA 150-10 ([5]; isolate 150-10) [µM] | MIC MRSA USA300 ([5]; isolate USA300) [µM] | MTD ([6]; Swiss Webster, mouse, in vivo, FIG. 14A, read-out: maximum tolerated dosage (MTD)) [mg/kg] | maximum tolerated dose (MTD) ([6]; i.v., Swiss Webster mice) [mpk] | antimicrobial activity (S.A. ATCC49775) | antimicrobial activity (MRSA USA300)
RRWVRRVRRVWRRVVRVVRRWVRR [SEQ ID No. 26, reference compound] | caused cytopathology | toxic to primary HBE cells | 4 | <4 | >8 | 16 | 16 | <4 | <4 | <4 | <4 | 8 | <4 | 15 | 15 | – | –
B1 | – | – | – | – | – | – | – | – | – | – | – | – | – | – | – | significant antimicrobial activity | significant antimicrobial activity
